The values that follow come from US10253030B2, “Crystal form, preparation method and intermediate of dihydropyrido ring compound” (QILU PHARMACEUTICAL CO., LTD., priority 2015, dated 2019).

Molecules are shown by their SMILES.

One experiment concerns Hepatitis B virus. As to conditions: prior art, Science, 299 (2003), 893-896; cited from earlier work.
The next experiment has as its system HBV. Put plainly: qPCR assay for HBV in vitro test (HBV DNA content in HepG2.2.15 cells). The format is cell-based. On the procedure: qPCR Assay for HBV In Vitro Test
The HBV DNA content in HepG2.2.15 cells was detected by real-time qPCR assay, and the EC50 values of the compounds were used as indicators to evaluate the inhibitory effect of the compounds on HBV.
2.1 Cell Line: HepG2.2.15 Cells
3.1 HepG2.2.15 cells (4×10^4 cells/well) were seeded in a 96-well plate and incubated at 37° C. under 5% CO 2 overnight.
3.2 On the second day, the compound was diluted into a total of 8 concentrations with 3-fold gradient dilution. Different concentrations of the compound were added to the culture wells, in duplicate. The final concentration of DMSO in the culture medium was 1%. 1 μM GLS4 was used as 100% inhibition control; 1% DMSO was used as 0% inhibition control.
3.3 On the fifth day, the fresh culture medium containing the compound was replaced.
3.4 On the eighth day, the culture medium in the culture wells was collected and DNA was extracted using a high-throughput DNA purification kit (Qiagen-51162). Refer to the product manual for the specific procedure.
3.1 15 μl of reaction mixture was added to each well of a 96-well PCR plate, then 10 μl of sample DNA or standard of HBV DNA to each well.
3.2 PCR reaction conditions: heating at 95° C. for 10 minutes; then denaturing at 95° C. for 15 seconds, extension at 60° C. for 1 minute, a total of 40 cycles. […]
(Quantitative PCR measures a nucleic acid by following its amplification.)

The term IC50 denotes the concentration at which inhibition is half-maximal. Consider `Nc1ccn([C@@H]2CS[C@H](CO)O2)c(=O)n1` [Iamivudine], for which the IC50 in the experiment on Hepatitis B virus is 300 nM.
As for `COC(=O)C1=C2C[C@H](NS(N)(=O)=O)CN2C(c2nccs2)=N[C@H]1c1ccc(F)c(F)c1F` [Compound 1], in the experiment with HBV (Hepatitis B virus, 192 h, HBV DNA in culture medium by real-time qPCR, day 8, read-out: Concentration for 50% of inhibition (EC50) value on HBV), the EC50 is not above 100 nM. Also, the “inhibitory effect on HBV DNA” value in the experiment on HBV (qPCR, conclusion in words) is on record as “significant inhibitory effect on HBV DNA”.
